According to patent US8138168B1 (Takeda Pharmaceutical Company Limited, priority 2007, dated 2012):

molecular target: T1, Recombinant human renin (Homo sapiens, UniProt P00797); test: In vitro enzymatic activity assay of renin inhibitors (fluorogenic peptide substrate); assay type: biochemical; conditions: read-out: IC50 of Exemplified Compounds Against Renin
T1 construct: isolate the active form (residues 67-406); made in house; host or cells: FreeStyle 293-F cells (transient expression of pcDNA3.1(+)/hREN)
T1 sequence (P00797 67-406): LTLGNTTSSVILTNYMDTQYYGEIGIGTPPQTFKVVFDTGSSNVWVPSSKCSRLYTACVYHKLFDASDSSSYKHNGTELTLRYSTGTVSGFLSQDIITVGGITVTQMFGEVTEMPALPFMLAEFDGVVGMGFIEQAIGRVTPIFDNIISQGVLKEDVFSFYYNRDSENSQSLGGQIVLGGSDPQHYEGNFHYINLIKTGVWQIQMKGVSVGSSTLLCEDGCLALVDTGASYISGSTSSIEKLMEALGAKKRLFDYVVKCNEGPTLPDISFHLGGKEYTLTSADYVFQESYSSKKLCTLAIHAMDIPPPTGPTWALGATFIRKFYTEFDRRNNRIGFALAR
Protocol: Test compounds in varying concentrations may be reacted with recombinant human renin in the presence of substrate, e.g., QXL520-γ-Abu-[…](HiLyteFluo488)-Arg-OH (Anaspec, San Jose, Calif.). […] Inhibition constants (IC50) may be calculated by non-linear curve fitting of the compound concentrations and fluorescence intensities to the standard IC50 equation.
Solutions of test compounds in varying concentrations mM final concentration) are prepared in dimethyl sulfoxide (DMSO) and then diluted into assay buffer comprising 50 mM Hepes, 1 mM EDTA, 1 mM DTT, 0.1 mg/mL BSA, 0.01% Brij35, pH 7.4. Alternatively, the assay can be performed with a high BSA concentration, wherein the buffer contains an additional 2% BSA.
Recombinant human renin (3 nM final concentration) is added to the dilutions and pre-incubated with the compounds for 10 minutes at 37° C. […] After pre-incubation, the reaction is initiated with of substrate QXL520-γ-Abu-[…](HiLyteFluo488)-Arg-OH (Anaspec, San Jose, Calif.). The final DMSO in the assay is 5%. The total volume of the reaction mixture is 20 μL, which can be placed on Greiner 384-well small volume plates.
The fluorescence intensity is determined upon the addition of substrate and determined again after incubation at 37° C. for one hour. The fluorescence intensity of a blank (no inhibition) using vehicle alone is also determined. Renin activity is linearly proportional to the change in fluorescence observed (final-initial).

IC50, > 1000 nM:
N[C@@H](CC(=O)N1CCCC(c2nc3ccccc3[nH]2)C1)c1ccc(Cl)cc1Cl (stereo partly drawn) [Compound 35, (3S)-1-(3-(1H-benzo[d]imidazol-2-yl)piperidin-1-yl)-3-amino-3-(2,4-dichlorophenyl)propan-1-one]
N[C@@H](CC(=O)N1CCCC(c2nc3ccccc3[nH]2)C1)Cc1ccc(Cl)c(Cl)c1 (stereo partly drawn) [Compound 36, (3R)-1-(3-(1H-benzo[d]imidazol-2-yl)piperidin-1-yl)-3-amino-4-(3,4-dichlorophenyl)butan-1-one]
N[C@@H](CC(=O)N1CCCC(c2nc3ccccc3[nH]2)C1)c1cccc(Cl)c1Cl (stereo partly drawn) [Compound 37, (3S)-1-(3-(1H-benzo[d]imidazol-2-yl)piperidin-1-yl)-3-amino-3-(2,3-dichlorophenyl)propan-1-one]
N[C@@H](CC(=O)N1CCCC(c2nc3ccccc3[nH]2)C1)Cc1cccc2ccccc12 (stereo partly drawn) [Compound 38, (3R)-1-(3-(1H-benzo[d]imidazol-2-yl)piperidin-1-yl)-3-amino-4-(naphthalen-1-yl)butan-1-one]
N[C@@H](CC(=O)N1CCCC(c2nc3ccccc3[nH]2)C1)Cc1ccc([N+](=O)[O-])cc1 (stereo partly drawn) [Compound 39, (3R)-1-(3-(1H-benzo[d]imidazol-2-yl)piperidin-1-yl)-3-amino-4-(4-nitrophenyl)butan-1-one]
N[C@@H](CC(=O)N1CCCC(c2nc3ccccc3[nH]2)C1)c1cccc([N+](=O)[O-])c1 (stereo partly drawn) [Compound 40, (3S)-1-(3-(1H-benzo[d]imidazol-2-yl)piperidin-1-yl)-3-amino-3-(3-nitrophenyl)propan-1-one]
N[C@@H](CC(=O)N1CCCC(c2nc3ccccc3[nH]2)C1)c1cccc(Br)c1 (stereo partly drawn) [Compound 41, (3S)-1-(3-(1H-benzo[d]imidazol-2-yl)piperidin-1-yl)-3-amino-3-(3-bromophenyl)propan-1-one]
Cc1ccccc1C[C@@H](N)CC(=O)N1CCCC(c2nc3ccccc3[nH]2)C1 (stereo partly drawn) [Compound 42, (3R)-1-(3-(1H-benzo[d]imidazol-2-yl)piperidin-1-yl)-3-amino-4-o-tolylbutan-1-one]
Cc1cccc(C[C@@H](N)CC(=O)N2CCCC(c3nc4ccccc4[nH]3)C2)c1 (stereo partly drawn) [Compound 43, (3R)-1-(3-(1H-benzo[d]imidazol-2-yl)piperidin-1-yl)-3-amino-4-m-tolylbutan-1-one]
N[C@@H](CC(=O)N1CCCC(c2nc3ccccc3[nH]2)C1)Cc1ccc2ccccc2c1 (stereo partly drawn) [Compound 44, (3R)-1-(3-(1H-benzo[d]imidazol-2-yl)piperidin-1-yl)-3-amino-4-(naphthalen-2-yl)butan-1-one]
O=C(C1CCCN1)N1CCCC(c2nc3ccccc3[nH]2)C1 (stereo not drawn) [Compound 45, (3-(1H-benzo[d]imidazol-2-yl)piperidin-1-yl)(pyrrolidin-2-yl)methanone]
CC(C)C[C@H](N)C(=O)N1CCCC(c2nc3ccccc3[nH]2)C1 (stereo partly drawn) [Compound 46, (2S)-1-(3-(1H-benzo[d]imidazol-2-yl)piperidin-1-yl)-2-amino-4-methylpentan-1-one]
CC(C)[C@H](N)C(=O)N1CCCC(c2nc3ccccc3[nH]2)C1 (stereo partly drawn) [Compound 47, (2S)-1-(3-(1H-benzo[d]imidazol-2-yl)piperidin-1-yl)-2-amino-3-methylbutan-1-one]
CC[C@H](C)[C@H](N)C(=O)N1CCCC(c2nc3ccccc3[nH]2)C1 (stereo partly drawn) [Compound 48, (2S,3S)-1-(3-(1H-benzo[d]imidazol-2-yl)piperidin-1-yl)-2-amino-3-methylpentan-1-one]
O=C([C@@H]1CCCN1C1CCNCC1)N1CCCC(c2nc3ccccc3[nH]2)C1 (stereo partly drawn) [Compound 49, (3-(1H-benzo[d]imidazol-2-yl)piperidin-1-yl)((S)-1-(piperidin-4-yl)pyrrolidin-2-yl)methanone]
C[C@@H](N)C(=O)N1CCCC(c2nc3ccccc3[nH]2)C1 (stereo partly drawn) [Compound 50, (2R)-1-(3-(1H-benzo[d]imidazol-2-yl)piperidin-1-yl)-2-aminopropan-1-one]
CC[C@@H](N)C(=O)N1CCCC(c2nc3ccccc3[nH]2)C1 (stereo partly drawn) [Compound 51, (2R)-1-(3-(1H-benzo[d]imidazol-2-yl)piperidin-1-yl)-2-aminobutan-1-one]
O=C(C1CCCNC1)N1CCCC(c2nc3ccccc3[nH]2)C1 (stereo not drawn) [Compound 52, (3-(1H-benzo[d]imidazol-2-yl)piperidin-1-yl)(piperidin-3-yl)methanone]
C[C@H](N)C(=O)N1CCCC(c2nc3ccccc3[nH]2)C1 (stereo partly drawn) [Compound 53, (2S)-1-(3-(1H-benzo[d]imidazol-2-yl)piperidin-1-yl)-2-aminopropan-1-one]
O=C([C@H]1CCCN1)N1CCCC(c2nc3ccccc3[nH]2)C1 (stereo partly drawn) [Compound 54, (3-(1H-benzo[d]imidazol-2-yl)piperidin-1-yl)((R)-pyrrolidin-2-yl)methanone]
O=C(C1CNC1)N1CCCC(c2nc3ccccc3[nH]2)C1 (stereo not drawn) [Compound 55, (3-(1H-benzo[d]imidazol-2-yl)piperidin-1-yl)(azetidin-3-yl)methanone]
CC(C)(C)[C@H](N)C(=O)N1CCCC(c2nc3ccccc3[nH]2)C1 (stereo partly drawn) [Compound 56, (2S)-1-(3-(1H-benzo[d]imidazol-2-yl)piperidin-1-yl)-2-amino-3,3-dimethylbutan-1-one]
N[C@H]1CCC[C@@H]1C(=O)N1CCCC(c2nc3ccccc3[nH]2)C1 (stereo partly drawn) [Compound 57, (3-(1H-benzo[d]imidazol-2-yl)piperidin-1-yl)((1S,2S)-2-aminocyclopentyl)methanone]
N[C@H](Cc1ccccc1)C(=O)N1CCCC(c2nc3ccccc3[nH]2)C1 (stereo partly drawn) [Compound 58, (2R)-1-(3-(1H-benzo[d]imidazol-2-yl)piperidin-1-yl)-2-amino-3-phenylpropan-1-one]
NC1(C(=O)N2CCCC(c3nc4ccccc4[nH]3)C2)CCC1 (stereo not drawn) [Compound 59, (3-(1H-benzo[d]imidazol-2-yl)piperidin-1-yl)(1-aminocyclobutyl)methanone]
N[C@@H](CCl)C(=O)N1CCCC(c2nc3ccccc3[nH]2)C1 (stereo partly drawn) [Compound 60, (2R)-1-(3-(1H-benzo[d]imidazol-2-yl)piperidin-1-yl)-2-amino-3-chloropropan-1-one]
N[C@H](C(=O)N1CCCC(c2nc3ccccc3[nH]2)C1)C1CCCCC1 (stereo partly drawn) [Compound 61, (2S)-1-(3-(1H-benzo[d]imidazol-2-yl)piperidin-1-yl)-2-amino-2-cyclohexylethanone]
N[C@@H](Cc1ccccn1)C(=O)N1CCCC(c2nc3ccccc3[nH]2)C1 (stereo partly drawn) [Compound 62, (2S)-1-(3-(1H-benzo[d]imidazol-2-yl)piperidin-1-yl)-2-amino-3-(pyridin-2-yl)propan-1-one]
NC1(C(=O)N2CCCC(c3nc4ccccc4[nH]3)C2)CC1 (stereo not drawn) [Compound 63, (3-(1H-benzo[d]imidazol-2-yl)piperidin-1-yl)(1-aminocyclopropyl)methanone]
CNC(Cc1ccccc1)C(=O)N1CCCC(c2nc3ccccc3[nH]2)C1 (stereo not drawn) [Compound 64, 1-(3-(1H-benzo[d]imidazol-2-yl)piperidin-1-yl)-2-(methylamino)-3-phenylpropan-1-one]
COCCCn1c(C2CCCN(C(=O)C[C@@H](N)c3ccccc3)C2)nc2ccccc21 (stereo partly drawn) [Compound 65, (3R)-3-amino-1-(3-(1-(3-methoxypropyl)-1H-benzo[d]imidazol-2-yl)piperidin-1-yl)-3-phenylpropan-1-one]
COCCCn1c(C2CCCN(C(=O)C[C@H](N)c3ccccc3)C2)nc2ccccc21 (stereo partly drawn) [Compound 66, (3S)-3-amino-1-(3-(1-(3-methoxypropyl)-1H-benzo[d]imidazol-2-yl)piperidin-1-yl)-3-phenylpropan-1-one]
COCCCn1c(C2CCCN(C(=O)C[C@@H](N)Cc3ccc(Cl)cc3)C2)nc2ccccc21 (stereo partly drawn) [Compound 67, (3S)-3-amino-4-(4-chlorophenyl)-1-(3-(1-(3-methoxypropyl)-1H-benzo[d]imidazol-2-yl)piperidin-1-yl)butan-1-one]
